From EP0624586B1, “Substituted pyrroles” (F. HOFFMANN-LA ROCHE AG, priority 1993, dated 1994)
Structures can show the parent of a compound that is named as a salt.

Molecular target: protein kinase C
Experiment: in vitro protein kinase C inhibition (32P incorporation from [γ-32P]ATP into histone)
Format: biochemical
Conditions: protein kinase C isolated from rat brains; 10 µM [γ-32P]ATP, lysine-rich histone, 30°C, 10 minutes
Procedure: Reaction mixtures (100 µl) contain 10 µM [γ-^32P]ATP, 0.2 mg/ml (about 15 µM) lysine-rich histone, 0.5 mM CaCl2 and 40 µg/ml phosphatidylserine in 25 mM Tris HCl, 5 mM MgNO3 (pH 7.5) buffer. The enzyme protein kinase C is isolated from rat brains according to the method of Kikkawa et al., J. Biol. Chem. 257, 13341 (1982). The reaction is started by adding the enzyme, is run at 30°C for 10 minutes and is then stopped using 1 ml of ice-cold 10% trichloroacetic acid. Acid-precipitable protein is collected on glass fibre discs by filtration. These discs are then washed with 5% trichloroacetic acid containing 20 mM sodium pyrophosphate (in order to remove unreacted ATP), followed by ethanol. The discs are dried and counted. Counts associated with each disc are used as a measure of the incorporation of ^32P from [γ-^32P]ATP into histone. The degree of enzyme blockade at each test compound concentration is calculated from (Cpm incorporated + test compound + enzyme)/(Cpm incorporated - test compound + enzyme)x 100% [formula] The IC50 value is that concentration of test compound which reduces by 50% the protein kinase-induced incorporation of the ^32P under the assay conditions described above.

Row | SMILES | IC50 [nM]
1 | CCC(N)[C@H]1CCn2c(c(C3=C(c4cn(C)c5ccccc45)C(=O)NC3=O)c3ccccc32)C1 (single isomer, unassigned) [Example 10, 3-[8(S)-[1(R or S)-aminopropyl]-6,7,8,9-tetrahydropyrido[1,2-a]indol-10-yl]-4-(1-methyl-3-indolyl)-1H-pyrrole-2,5-dione hydrochloride] | 3.3
2 | CC(C)[C@H](N)[C@H]1CCn2c(c(C3=C(c4cn(C)c5ccccc45)C(=O)NC3=O)c3ccccc32)C1 [Example 11, 3-[8(S)-[1(S)-amino-2-methylpropyl]-6,7,8,9-tetrahydropyrido[1,2-a]indol-10-yl-4-(1-methyl-3-indolyl)-1H-pyrrole-2,5-dione hydrochloride] | 5.5
